# Results reported in US20190127359A1, “Compounds & Methods for the Enhanced Degradation of Targeted Proteins & Other Polypeptides by an E3 Ubiquitin Ligase” (YALE UNIVERSITY, priority 2012, published 2019).
# Molecular target: VHL (Homo sapiens, UniProt P40337)
# Assay: Fluorescence polarization competition assay (HIF-1α peptide FP displacement)
"IC50 (IC50 (μM) 10% DMSO, 10% DMSO) [µM]","IC50 (IC50 (μM) 1% DMSO, 1% DMSO) [µM]",Structure (SMILES),further results
> 1000,,O=C(NCc1ccc(Cl)cc1)[C@@H]1C[C@@H](O)CN1C(=O)Cc1ccncc1 [VL062],
> 1000,,N#Cc1cc(S(=O)(=O)N2C[C@H](O)C[C@H]2C(=O)NCc2ccc(Cl)cc2)ccc1F [VL063],
110,,O=C(NCc1ccc(Cl)cc1)[C@@H]1C[C@@H](O)CN1C(=O)c1ccccc1 [VL064],
74.2,,O=C(NCc1ccc(Cl)cc1)[C@@H]1C[C@@H](O)CN1C(=O)c1ccccc1[N+](=O)[O-] [VL065],
72.4,,Cc1c(C(=O)N2C[C@H](O)C[C@H]2C(=O)NCc2ccc(Cl)cc2)cccc1[N+](=O)[O-] [VL066],
70.7,,O=C(NCc1ccc(Cl)cc1)[C@@H]1C[C@@H](O)CN1C(=O)c1ccc([N+](=O)[O-])cc1 [VL067],
> 1000,,N#Cc1ccc(CC(=O)N2C[C@H](O)C[C@H]2C(=O)NCc2ccc(Cl)cc2)s1 [VL068],
23.8,,COc1ccc(C(=O)N2C[C@H](O)C[C@H]2C(=O)NCc2ccc(Cl)cc2)cc1OC [VL069],
38.2,,Nc1ccccc1C(=O)N1C[C@H](O)C[C@H]1C(=O)NCc1ccc(Cl)cc1 [VL070],
10.4,,Cc1c(N)cccc1C(=O)N1C[C@H](O)C[C@H]1C(=O)NCc1ccc(Cl)cc1 [VL071],
29.5,,Nc1ccc(C(=O)N2C[C@H](O)C[C@H]2C(=O)NCc2ccc(Cl)cc2)cc1 [VL072],
39,46,O=C(NCc1ccc(Cl)cc1)[C@@H]1C[C@@H](O)CN1C(=O)c1ccccc1Cl [VL073],
42.9,,O=C(NCc1ccc(Cl)cc1)[C@@H]1C[C@@H](O)CN1C(=O)c1ccc(Cl)cc1 [VL074],
35.5,,O=C(NCc1ccc(Cl)cc1)[C@@H]1C[C@@H](O)CN1C(=O)c1cccc(F)c1 [VL075],
19.6,,O=C(NCc1ccc(Cl)cc1)[C@@H]1C[C@@H](O)CN1C(=O)c1cccc(Br)c1 [VL076],
8.9,,N#Cc1cccc(C(=O)N2C[C@H](O)C[C@H]2C(=O)NCc2ccc(Cl)cc2)c1 [VL077],
60.2,,O=C(NCc1ccc(Cl)cc1)[C@@H]1C[C@@H](O)CN1C(=O)c1cccc(C(F)(F)F)c1 [VL078],
26.3,,COc1cccc(C(=O)N2C[C@H](O)C[C@H]2C(=O)NCc2ccc(Cl)cc2)c1 [VL079],
17,,O=C(NCc1ccc(Cl)cc1)[C@@H]1C[C@@H](O)CN1C(=O)c1cccc(O)c1 [VL080],
15.5,,O=C(NCc1ccc(Cl)cc1)[C@@H]1C[C@@H](O)CN1C(=O)c1ccc(Cl)cc1Br [VL081],
29,,NS(=O)(=O)c1ccc(C(=O)N2C[C@H](O)C[C@H]2C(=O)NCc2ccc(Cl)cc2)cc1 [VL082],
> 1000,,CC(=O)Nc1ccc(Br)cc1C(=O)N1C[C@H](O)C[C@H]1C(=O)NCc1ccc(Cl)cc1 [VL083],
460,,O=C(NCc1ccc(Cl)cc1)[C@@H]1C[C@@H](O)CN1C(=O)c1ccc([N+](=O)[O-])c(O)c1 [VL084],
27.1,,Cc1cc(CC(=O)N2C[C@H](O)C[C@H]2C(=O)NCc2ccc(Cl)cc2Cl)on1 [VL085],

"IC50 (IC50 (μM) 10% DMSO, 10% DMSO) [µM]","IC50 (IC50 (μM) 1% DMSO, 1% DMSO) [µM]",Structure (SMILES),further results
168,,Cc1cc(CC(=O)N2C[C@H](O)C[C@H]2C(=O)NCc2cccc3ccccc23)on1 [VL086],
103,,Cc1cc(CC(=O)N2C[C@H](O)C[C@H]2C(=O)NCc2ccc(S(N)(=O)=O)cc2)on1 [VL087],
18.2,,Cc1cc(CC(=O)N2C[C@H](O)C[C@H]2C(=O)NCc2ccc(C#N)cc2)on1 [VL088],
40.8,,Cc1cc(CC(=O)N2C[C@H](O)C[C@H]2C(=O)NCc2ccc(C(=O)C(C)C)cc2)on1 [VL089],
45.2,,Cc1cc(CC(=O)N2C[C@H](O)C[C@H]2C(=O)NCc2ccc(C(=O)CC(C)C)cc2)on1 [VL090],
23,,Cc1cc(CC(=O)N2C[C@H](O)C[C@H]2C(=O)NCc2ccc(C(=O)OCC3CC3)cc2)on1 [VL091],
510,,CON(C)C(=O)c1ccc(CNC(=O)[C@@H]2C[C@@H](O)CN2C(=O)Cc2cc(C)no2)cc1 [VL093],
540,,Cc1cc(CC(=O)N2C[C@H](O)C[C@H]2C(=O)NCc2cccc3cccnc23)on1 [VL094],
32.5,,O=C(NCc1ccc(Cl)cc1)[C@@H]1C[C@@H](O)CN1C(=O)c1ccncc1 [VL096],
49.4,,O=C(NCc1ccc(Cl)cc1)[C@@H]1C[C@@H](O)CN1C(=O)c1cccnc1 [VL097],
244,,O=C(NCc1ccc(Cl)cc1)[C@@H]1C[C@@H](O)CN1C(=O)c1ccccn1 [VL098],
39.6,,O=C(NCc1ccc(Cl)cc1)[C@@H]1C[C@@H](O)CN1C(=O)c1ccnc(Cl)c1 [VL099],
63.6,,O=C(NCc1ccc(Cl)cc1)[C@@H]1C[C@@H](O)CN1C(=O)c1cncc(Br)c1 [VL100],
940,,Cc1nc(C(=O)N2C[C@H](O)C[C@H]2C(=O)NCc2ccc(Cl)cc2)co1 [VL101],
64.5,,Cc1n[nH]cc1C(=O)N1C[C@H](O)C[C@H]1C(=O)NCc1ccc(Cl)cc1 [VL102],
> 1000,,O=C(NCc1ccc(Cl)cc1)[C@@H]1C[C@@H](O)CN1C(=O)CCN1CCCCC1 [VL104],
> 1000,,O=C(NCc1ccc(Cl)cc1)[C@@H]1C[C@@H](O)CN1C(=O)Cc1cccnc1 [VL105],
> 1000,,Cc1nc(S)sc1CC(=O)N1C[C@H](O)C[C@H]1C(=O)NCc1ccc(Cl)cc1 [VL106],
347,,O=C(NCc1ccc(Cl)cc1)[C@@H]1C[C@@H](O)CN1C(=O)CN1C(=O)CSC1=S [VL108],
349,,Cc1cc(CC(=O)N2C[C@H](O)C[C@H]2C(=O)NCc2c[nH]c3ccccc23)on1 [VL109],
138,,Cc1cc(CC(=O)N2C[C@H](O)C[C@H]2C(=O)NCc2ccc(N3CCCCC3)cc2)on1 [VL110],
11.3,,Cc1cc(CC(=O)N2C[C@H](O)C[C@H]2C(=O)NCc2ccc(-c3ncco3)cc2)on1 [VL112],
,,Cc1cc(CC(=O)N2C[C@H](F)C[C@H]2C(=O)NCc2ccc(-c3cnco3)cc2)on1 [VL113],IC50 (μM) 1% DMSO (1% DMSO): Inactive; IC50 (μM) 10% DMSO (10% DMSO): Inactive
,,CC(=O)O[C@@H]1C[C@@H](C(=O)NCc2ccc(-c3cnco3)cc2)N(C(=O)Cc2cc(C)no2)C1 [VL114],IC50 (μM) 1% DMSO (1% DMSO): Inactive; IC50 (μM) 10% DMSO (10% DMSO): Inactive

"IC50 (IC50 (μM) 10% DMSO, 10% DMSO) [µM]","IC50 (IC50 (μM) 1% DMSO, 1% DMSO) [µM]",Structure (SMILES),further results
17,19,Cc1cc(CC(=O)N2C[C@H](O)C[C@H]2C(=O)NCc2cccc(-c3scnc3C)c2)on1 [VL115],
5,13,Cc1cc(CC(=O)N2C[C@H](O)C[C@H]2C(=O)NCc2ccc(-c3ocnc3C)cc2)on1 [VL117],
16.4,31,Cc1cc(CC(=O)N2C[C@H](O)C[C@H]2C(=O)NCc2cccc(-c3cccn3C)c2)on1 [VL118],
17.8,33,Cc1cc(CC(=O)N2C[C@H](O)C[C@H]2C(=O)NCc2ccc(-c3cccn3C)cc2)on1 [VL119],
> 1000,> 1000,O=C(NCc1ccc(Cl)cc1)[C@@H]1C[C@@H](O)CN1C(=O)Cc1c[nH]cn1 [VL120],
> 1000,> 1000,O=C(NCc1ccc(Cl)cc1)[C@@H]1C[C@@H](O)CN1C(=O)c1ccccc1-c1cnco1 [VL121],
102,220,O=C(NCc1ccc(Cl)cc1)[C@@H]1C[C@@H](O)CN1C(=O)c1cccc(-c2cnco2)c1 [VL122],
560,404,O=C(NCc1ccc(Cl)cc1)[C@@H]1C[C@@H](O)CN1C(=O)c1cccc(-c2ncc[nH]2)c1 [VL123],
990,670,O=C(NCc1ccc(Cl)cc1)[C@@H]1C[C@@H](O)CN1C(=O)c1cccc2[nH]ccc12 [VL124],
790,568,O=C(NCc1ccc(Cl)cc1)[C@@H]1C[C@@H](O)CN1C(=O)c1cccc2[nH]cnc12 [VL125],
88.1,82,O=C(NCc1ccc(Cl)cc1)[C@@H]1C[C@@H](O)CN1C(=O)c1ccc2[nH]ncc2c1 [VL126],
47.7,73,O=C(NCc1ccc(Cl)cc1)[C@@H]1C[C@@H](O)CN1C(=O)c1ccc2cn[nH]c2c1 [VL127],
57.9,224,O=C(NCc1ccc(Cl)cc1)[C@@H]1C[C@@H](O)CN1C(=O)c1cccc2cnccc12 [VL128],
760,493,O=C(NCc1ccc(Cl)cc1)[C@@H]1C[C@@H](O)CN1C(=O)c1cccc2cccnc12 [VL129],
> 1000,> 1000,O=C(NCc1ccc(Cl)cc1)[C@@H]1C[C@@H](O)CN1S(=O)(=O)c1cccc2cccnc12 [VL130],
8,19,Cc1cc(CC(=O)N2C[C@H](O)C[C@H]2C(=O)NCc2ccc(-c3ncon3)cc2)on1 [VL131],
77.7,85,COc1ccc(Cn2cncc2-c2ccc(CNC(=O)[C@@H]3C[C@@H](O)CN3C(=O)Cc3cc(C)no3)cc2)cc1 [VL132],
2.2,7.5,"Cc1cc(CC(=O)N2C[C@H](O)C[C@H]2C(=O)NCc2ccc(-c3cc[nH]c3)cc2)on1 [VL133, (2S,4R)—N-(4-(1H-pyrrol-3-yl)benzyl)-4-hydroxy-1-(2-(3-methylisoxazol-5-yl)acetyl)pyrrolidine-2-carboxamide]",
48.1,54,Cc1cc(CC(=O)N2C[C@H](O)C[C@H]2C(=O)NCc2cccc(-c3cc[nH]c3)c2)on1 [VL134],
28.2,540,COC(=O)Cc1cn(CC(=O)N2C[C@H](O)C[C@H]2C(=O)NCc2ccc(-c3ccccc3)cc2)nn1 [VL136],
35.6,128,COCc1cn(CC(=O)N2C[C@H](O)C[C@H]2C(=O)NCc2ccc(-c3ccccc3)cc2)nn1 [VL137],
52.2,70,Cc1cc(CC(=O)N2C[C@H](O)C[C@H]2C(=O)NCc2ccc(-c3c(C)noc3C)cc2)on1 [VL138],
24.7,44,Cc1cc(CC(=O)N2C[C@H](O)C[C@H]2C(=O)NCc2ccc(-c3cn[nH]c3)cc2)on1 [VL139],
10.3,17,Cc1cc(CC(=O)N2C[C@H](O)C[C@H]2C(=O)NCc2ccc(-c3c[nH]nn3)cc2)on1 [VL140],

Structure (SMILES),"IC50 (IC50 (μM) 10% DMSO, 10% DMSO) [µM]","IC50 (IC50 (μM) 1% DMSO, 1% DMSO) [µM]",further results
CC(C)[Si](c1cn(CC(=O)N2C[C@H](O)C[C@H]2C(=O)NCc2ccc(-c3ccccc3)cc2)nn1)(C(C)C)C(C)C [VL135],,> 1000,IC50 (μM) 10% DMSO (10% DMSO): Inactive
